# Laboratory results: paper PMC2074754, “Effects of the selective bisindolylmaleimide protein kinase C inhibitor GF 109203X on P-glycoprotein-mediated multidrug resistance” (British Journal of Cancer, 1996)
# What was measured:
# [1] = target: T1, P-glycoprotein (P-gp, MDR1) (Homo sapiens, UniProt P08183); assay: [3H]vinblastine radioligand competition and inhibition of [3H]azidopine photoaffinity labelling of the […] kDa P-gp band; type: binding
# T1 construct: gene ABCB1
# [2] = target: T1, P-glycoprotein (P-gp, MDR1); assay: radioligand binding with self-competition by unlabelled vinblastine
# T1 sequence (P08183 whole entry): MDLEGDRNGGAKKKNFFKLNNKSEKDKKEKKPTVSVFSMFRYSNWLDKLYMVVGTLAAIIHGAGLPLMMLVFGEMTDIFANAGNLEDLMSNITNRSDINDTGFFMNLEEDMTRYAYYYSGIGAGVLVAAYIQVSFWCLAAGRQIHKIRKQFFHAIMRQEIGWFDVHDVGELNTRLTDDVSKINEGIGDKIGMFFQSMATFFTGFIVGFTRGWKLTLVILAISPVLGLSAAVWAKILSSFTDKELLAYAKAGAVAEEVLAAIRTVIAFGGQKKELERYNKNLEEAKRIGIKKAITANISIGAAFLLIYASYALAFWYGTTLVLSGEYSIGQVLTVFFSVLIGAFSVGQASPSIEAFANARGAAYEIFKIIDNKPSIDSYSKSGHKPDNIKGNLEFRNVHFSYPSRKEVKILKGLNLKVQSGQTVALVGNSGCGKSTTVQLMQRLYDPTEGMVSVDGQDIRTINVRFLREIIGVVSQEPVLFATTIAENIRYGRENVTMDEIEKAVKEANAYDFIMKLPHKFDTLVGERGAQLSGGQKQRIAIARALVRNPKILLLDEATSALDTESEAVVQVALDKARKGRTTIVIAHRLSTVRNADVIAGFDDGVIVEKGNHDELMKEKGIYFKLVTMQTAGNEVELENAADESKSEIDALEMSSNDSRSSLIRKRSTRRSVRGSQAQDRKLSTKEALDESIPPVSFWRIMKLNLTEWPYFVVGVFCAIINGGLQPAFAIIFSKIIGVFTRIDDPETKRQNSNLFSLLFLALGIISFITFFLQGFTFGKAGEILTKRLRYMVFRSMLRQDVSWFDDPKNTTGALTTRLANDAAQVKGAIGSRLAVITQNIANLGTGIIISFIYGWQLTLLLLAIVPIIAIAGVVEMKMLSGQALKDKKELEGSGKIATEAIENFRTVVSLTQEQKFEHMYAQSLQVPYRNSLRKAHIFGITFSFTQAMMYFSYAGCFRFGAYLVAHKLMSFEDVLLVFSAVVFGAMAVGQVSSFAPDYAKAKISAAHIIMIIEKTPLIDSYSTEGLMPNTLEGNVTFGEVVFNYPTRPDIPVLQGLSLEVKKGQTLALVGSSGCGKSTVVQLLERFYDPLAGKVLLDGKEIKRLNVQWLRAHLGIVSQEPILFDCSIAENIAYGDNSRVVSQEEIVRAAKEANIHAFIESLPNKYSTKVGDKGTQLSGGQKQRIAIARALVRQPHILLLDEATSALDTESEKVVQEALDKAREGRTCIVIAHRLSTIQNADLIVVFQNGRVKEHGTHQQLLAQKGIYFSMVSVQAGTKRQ
Structure (SMILES),[3H]vinblastine radioligand competition and inhibition of [3H]azidopine photoaff [1],radioligand binding with self-competition by unlabelled vinblastine [2]
CN(C)CCCn1cc(C2=C(c3c[nH]c4ccccc34)C(=O)NC2=O)c2ccccc21 [GF 109203X],Inhibition of the photo- affinity labelling was observed in a similar micromolar,–
CC[C@]1(O)C[C@@H]2CN(CCc3c([nH]c4ccccc34)[C@@](C(=O)OC)(c3cc4c(cc3OC)N(C)[C@H]3[C@@](O)(C(=O)OC)[C@H](OC(C)=O)[C@]5(CC)C=CCN6CC[C@]43[C@@H]65)C2)C1 [vinblastine sulphate],–,Competition of [3H]vinblastine sulphate binding by unlabelled vinblastine sulphate was included as a control.
